Source: article PMC12040169 (PLOS Biology, 2025)

Experiment: in vitro
Conditions: human, hela cells, % viability
Work on `Fc1cccc(-c2nccnc2NCc2cccnc2)c1` [CBK037633] yielded a viability at 28.5 h, 10 µM of 88.3%.
With `c1cncc(CNc2nccnc2-c2ccoc2)c1` [CBK037635] the viability at 28.5 h, 10 µM was 96.4%.
With `c1cncc(Nc2cccc(-c3cnc4ccccc4c3)n2)c1` [CBK037638] the viability at 28.5 h, 10 µM was 98.8%.
In the case of `CN1CCN(c2cccc(-c3ccc(CNC(=O)OC(C)(C)C)cc3)n2)CC1` [CBK037641], the viability at 28.5 h, 10 µM is reported as 95.2%.
In the case of `COc1ccc(-c2cccc(Nc3cccnc3)n2)cc1OC` [CBK037644], the viability at 28.5 h, 10 µM is reported as 94.6%.
In the case of `Oc1cccc(-c2nccnc2NCc2ccc(Cl)cc2)c1` [CBK037650], the viability at 28.5 h, 10 µM is reported as 92.8%.
With `COc1cc(-c2nccnc2N[C@@H]2CCN(Cc3ccccc3)C2)cc(OC)c1OC` [CBK037651] the viability at 28.5 h, 10 µM was 96.7%.
With `CCCCN(C)c1nccnc1-c1cccc(O)c1` [CBK037652] the viability at 28.5 h, 10 µM was 99%.
For `COc1ccc(Nc2ccc(-c3ccc(C(=O)O)cc3)cn2)cc1` [CBK037654], the viability at 28.5 h, 10 µM was 95.2%.
Work on `O=c1[nH]ccn1CCNc1ccc(-c2cccc3cccnc23)cn1` [CBK037658] yielded a viability at 28.5 h, 10 µM of 79.2%.
In the case of `c1cncc(-c2ccc(N3CCN(CCN4CCCC4)CC3)nc2)c1` [CBK037661], the viability at 28.5 h, 10 µM is reported as 108%.
`COc1ncc(-c2nccnc2NCc2ccc(F)cc2)c(OC)n1` [CBK037668] gave a viability at 28.5 h, 10 µM of 96.7%.
Molecule `CC(O)CNc1nccnc1-c1ccc(S(C)(=O)=O)cc1` (centres unmarked) [CBK037669] has a viability at 28.5 h, 10 µM of 96.1%.
For `COc1ccc(-c2cccc(N3CCN(CCN4CCCC4)CC3)n2)cc1OC` [CBK037680], the viability at 28.5 h, 10 µM was 84.9%.
`COc1cccc(Nc2cc(-c3ccc(N4CCOCC4)cc3)ncn2)c1OC` [CBK037687] gave a viability at 28.5 h, 10 µM of 94.7%.
Molecule `O=C(c1ccco1)N1CCN(c2cc(-c3ccsc3)ncn2)CC1` [CBK037690] has a viability at 28.5 h, 10 µM of 100%.
`COc1cc(Nc2cccc(-c3cccc(NC(C)=O)c3)n2)cc(OC)c1OC` [CBK037698] gave a viability at 28.5 h, 10 µM of 111%.
`CC(=O)Nc1cccc(-c2ccc(Nc3cccnc3)nc2)c1` [CBK037703] gave a viability at 28.5 h, 10 µM of 96.7%.
For `COc1ncc(-c2cc(N3CCN(c4ccccn4)CC3)ncn2)c(OC)n1` [CBK037707], the viability at 28.5 h, 10 µM was 102%.
For `COc1cc(C)c(Nc2cc(-c3ccc4c(c3)OCO4)ncn2)cc1OC` [CBK037711], the viability at 28.5 h, 10 µM was 98.9%.
In the case of `COc1cc(Nc2cc(-c3cccc(N)c3)ncn2)cc(OC)c1OC` [CBK037713], the viability at 28.5 h, 10 µM is reported as 117%.
`COc1ncc(-c2ccc(NCCn3cc[nH]c3=O)nc2)c(OC)n1` [CBK037719] showed a viability at 28.5 h, 10 µM of 88.9%.
`COc1cncc(-c2ccc(N3CCN(CCN(C)C)CC3)nc2)c1` [CBK037720] gave a viability at 28.5 h, 10 µM of 88.9%.
Molecule `CN(C)c1cccc(-c2ccc(Nc3cccc(NC(=O)c4ccncc4)c3)nc2)c1` [CBK037721] has a viability at 28.5 h, 10 µM of 58.7%.
In the case of `COc1ncc(-c2cccc(NCC(c3cccnc3)N(C)C)n2)c(OC)n1` (centres unmarked) [CBK037723], the viability at 28.5 h, 10 µM is reported as 104%.
For `COc1cc(C)c(Nc2cccc(/C=C/c3ccccc3)n2)cc1OC` [CBK037725], the viability at 28.5 h, 10 µM was 102%.
Work on `O=c1[nH]ccn1CCNc1cc(-c2cccc3oc4ccccc4c23)ncn1` [CBK037726] yielded a viability at 28.5 h, 10 µM of 102%.
`c1ccc(CN2CCN(c3ccc(Nc4cc(-c5ccncc5)ncn4)cc3)CC2)cc1` [CBK037727] showed a viability at 28.5 h, 10 µM of 92.3%.
With `c1ccc(Oc2ccccc2-c2cc(N3CCC(N4CCCCC4)CC3)ncn2)cc1` [CBK037728] the viability at 28.5 h, 10 µM was 88.7%.
`FC(F)(F)Oc1ccc(-c2cc(NCCc3ccccn3)ncn2)cc1` [CBK037732] showed a viability at 28.5 h, 10 µM of 98.2%.
`CN(C)c1cccc(-c2ccc(Nc3ccc(N4CCOCC4)cc3)nc2)c1` [CBK037735] showed a viability at 28.5 h, 10 µM of 92.2%.
Molecule `Cc1ccc(-c2ccc(Nc3ccc(Oc4ccccc4)cc3)nc2)cc1C` [CBK037740] has a viability at 28.5 h, 10 µM of 92.7%.
For `COc1cncc(-c2cccc(NCC(c3cccnc3)N(C)C)n2)c1` (centres unmarked) [CBK037741], the viability at 28.5 h, 10 µM was 93.6%.
With `c1cncc(Nc2cccc(-c3ccco3)n2)c1` [CBK037742] the viability at 28.5 h, 10 µM was 100%.
With `COc1ccc(Nc2ccc(-c3ccc4ccccc4c3)cn2)cn1` [CBK037744] the viability at 28.5 h, 10 µM was 88.6%.
`CCCNc1cc(-c2cccc(Cl)c2)nc2ccnn12` [CBK037747] gave a viability at 28.5 h, 10 µM of 112%.
`COc1ccc(-c2cc(N3CCC(N4CCCCC4)CC3)ncn2)cc1OC` [CBK037752] showed a viability at 28.5 h, 10 µM of 90%.
With `COc1cc(C)c(Nc2cc(-c3cccnc3)ncn2)cc1OC` [CBK037754] the viability at 28.5 h, 10 µM was 102%.
For `O=C(NCCO)c1cccc(-c2cncc(N3CCCCC3CCO)n2)c1` (centres unmarked) [CBK037759], the viability at 28.5 h, 10 µM was 104%.
In the case of `CCN(CCO)c1ccc(Nc2cc(-c3ccc(C#N)cc3)ncn2)cc1` [CBK037764], the viability at 28.5 h, 10 µM is reported as 87.9%.
`c1cc(N2CCN(CCN3CCCC3)CC2)ncc1-c1ccc2c(c1)OCO2` [CBK037769] showed a viability at 28.5 h, 10 µM of 95.1%.
`COc1cncc(-c2ccc(Nc3ccc(OC)nc3)nc2)c1` [CBK037773] gave a viability at 28.5 h, 10 µM of 103%.
Molecule `CCCC/C=C/c1ccc(Nc2ccc3c(c2)OCCO3)nc1` [CBK037774] has a viability at 28.5 h, 10 µM of 93.3%.
`COc1ccc(C(=O)OC(C)(C)C)c(-c2cncc(N3CCCCC3CCO)n2)c1` (centres unmarked) [CBK037786] showed a viability at 28.5 h, 10 µM of 104%.
